Columns and labels:
human SMURF1 promoter = assay: Human SMURF1 promoter-GFP reporter in HEK293 cells; format: cell-based; details: HEK293 stably transfected
Procedure: (§1) FIG. 13. (A) Screen for modulators of SMURF1 mRNA abundance in PASMCs. Human PASMCs from PAH patients were treated with agents that are associated with PAH, including cytokines, chemokines, growth factors, and small molecule pathway probes, and were cultured under hypoxic conditions to identify modulators of SMURF1 mRNA (n=2 donors). […] The human SMURF1 promoter was stably transfected into HEK293 cells upstream of a GFP sequence.

SMURF1 mRNA = assay: Screen for modulators of SMURF1 mRNA abundance in PASMCs; format: cell-based, human; details: PASMCs from PAH patients; normalized Ct values
Procedure: as §1

E6AP = target: T1, E6AP (Homo sapiens, UniProt Q05086, K489R); assay: E. coli split-CAT E6AP reporter system; format: cell-based
T1 construct: Similarly, E6AP453-852: wild-type HECTd, K466R or catalytic dead HECTd-C820A; expressed in transfected cells; host or cells: Mach1-T1R E. coli
T1 sequence (Q05086 453-852 isoform Q05086-2 K466R): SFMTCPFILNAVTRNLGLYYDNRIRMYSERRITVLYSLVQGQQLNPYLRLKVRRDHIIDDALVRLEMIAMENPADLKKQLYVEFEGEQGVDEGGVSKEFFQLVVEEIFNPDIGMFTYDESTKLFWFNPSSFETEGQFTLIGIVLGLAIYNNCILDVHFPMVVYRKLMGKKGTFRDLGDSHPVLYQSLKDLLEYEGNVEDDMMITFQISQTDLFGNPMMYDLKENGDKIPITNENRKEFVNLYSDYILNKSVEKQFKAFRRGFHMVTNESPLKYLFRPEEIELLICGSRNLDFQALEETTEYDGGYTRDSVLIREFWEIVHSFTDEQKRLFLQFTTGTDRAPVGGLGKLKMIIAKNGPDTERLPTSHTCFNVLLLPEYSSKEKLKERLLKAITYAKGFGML
Procedure: (§2) Assays were performed as previously described.84,85 The selection plasmids were co-transformed into Mach1™-T1R E. coli cells. All growth assays were performed in LB agar or liquid at 37° C. Optimization of chloramphenicol (CAM) concentrations were performed according to the largest growth shift between the hyperactive mutant to the catalytic dead mutant in SMURF1 (ΔC2-K381R; ΔC2-C725A) or in E6AP (HECTd-K466R; HECTd-C820A) at each assay as previously described. The disclosers constructed a split-CAT based E3-dependent Rpn10 full length ubiquitylation cascade to monitor the effect of inhibitor and point mutations in ubiquitin E3 ligases. Specifically, yeast Rpn10 was tethered to N-CAT as a general ubiquitylation target and co-expressed with C-CAT-Ub, E1, E2 and human SMURF1235-757: wild-type DC2, K381R or catalytic dead C725A. Similarly, E6AP453-852: wild-type HECTd, K466R or catalytic dead HECTd-C820A.
To inspect ubiquitylation of BMPR2, the disclosures substituted Rpn10 with BMPR2174-558 cytosolic portion fused to the N-CAT. […] Inhibition assays were performed in liquid LB using 96 well-plate with Tecan Sunrise reader high intensity shaking for 9.5 mins rest for 10, 5 mins shake and read at 595 nm. Growth was monitored between 12-36 Hrs as indicated. […]

E1, E2, CAT = assay: Split-CAT system counter-checks (E1, E2, CAT activity, E. coli toxicity); format: cell-based
Procedure: as §2
To inspect ubiquitylation of BMPR2, the disclosures substituted Rpn10 with BMPR2174-558 cytosolic portion fused to the N-CAT. […] Inhibition assays were performed in liquid LB using 96 well-plate with Tecan Sunrise reader high intensity shaking for 9.5 mins rest for 10, 5 mins shake and read at 595 nm. Growth was monitored between 12-36 Hrs as indicated.

Compound	GFP signal (SMURF1 promoter) (human SMURF1 promoter)	SMURF1 expression (mRNA) (SMURF1 mRNA)	Inhibition of E6AP S739L, R740G double mutant (E6AP; escape mutant, FIG. 6K)	E6AP activity (E6AP; hyperactive HECTd-K466R E6AP, FIG. 6I)	Effect on E1, E2, or CAT activities (E1, E2, CAT)
CO/C1=C\C(C)=C\[C@@H](C)[C@@H](O)[C@@H](C)C/C(C)=C/C=C/[C@H](OC)[C@@H]([C@@H](C)[C@@H](O)[C@H](C)[C@@]2(O)C[C@@H](O)[C@H](C)[C@@H](C(C)C)O2)OC1=O [bafilomycin A1, reference compound]	increased GFP signal				
TGFβ1: transforming growth factor beta 1, agent in SMURF1 modulator screen	increased GFP signal	increase SMURF1 expression			
Cc1ccc(-n2ccnc2N2CCN(C(=O)C34CC5CC(CC(C5)C3)C4)CC2)cc1 [i-27, 1-[1-(4-methylphenyl)-imidazol-2-yl]-4-[adamantane-1-carbonyl]piperazine]			inhibition was reduced twofold	reduced E6AP activity in a dose-dependent manner	without affecting E1, E2, or CAT activities

Reference: patent US20250266123A1, “IN SILICO METHOD OF IDENTIFYING ALLOSTERIC HECT E3-LIGASE INHIBITORS” (Ramot at Tel-Aviv University Ltd., priority 2024, published 2025)
